Earlier results on one compound are cited in patent US6468944B1, “Method of preparing glyphosate herbicide formulations” (priority 1991, dated 2002).

Molecules are shown by their SMILES.

As for `O=C(O)CNCP(=O)(O)O` [Glyphosate, N-phosphonomethylglycine], the solubility in water entry is listed as “relatively insoluble in water”.
